Like-named read-outs stand apart in the source and are kept apart here.
Experiments:
[1] = molecular target: T1, N-terminally FLAG-tagged PARP2 (amino acids 1-583) (Homo sapiens, UniProt Q9UGN5); experiment: PARP2 probe displacement HTRF assay; assay type: binding; conditions: binned Kd
T1 construct: N-terminally FLAG-tagged PARP2 (amino acids 1-583)
Protocol: Data analysis was performed identical as for PARP1.

[2] = molecular target: T2, full length N-terminally FLAG-tagged PARP1 (Homo sapiens, UniProt P09874); experiment: PARP1 probe displacement HTRF assay; conditions: for Selectivity: PARP1 over PARP2, ratio Kd (PARP2)/Kd (PARP1); for Kd: binned Kd
T2 sequence (P09874 whole entry): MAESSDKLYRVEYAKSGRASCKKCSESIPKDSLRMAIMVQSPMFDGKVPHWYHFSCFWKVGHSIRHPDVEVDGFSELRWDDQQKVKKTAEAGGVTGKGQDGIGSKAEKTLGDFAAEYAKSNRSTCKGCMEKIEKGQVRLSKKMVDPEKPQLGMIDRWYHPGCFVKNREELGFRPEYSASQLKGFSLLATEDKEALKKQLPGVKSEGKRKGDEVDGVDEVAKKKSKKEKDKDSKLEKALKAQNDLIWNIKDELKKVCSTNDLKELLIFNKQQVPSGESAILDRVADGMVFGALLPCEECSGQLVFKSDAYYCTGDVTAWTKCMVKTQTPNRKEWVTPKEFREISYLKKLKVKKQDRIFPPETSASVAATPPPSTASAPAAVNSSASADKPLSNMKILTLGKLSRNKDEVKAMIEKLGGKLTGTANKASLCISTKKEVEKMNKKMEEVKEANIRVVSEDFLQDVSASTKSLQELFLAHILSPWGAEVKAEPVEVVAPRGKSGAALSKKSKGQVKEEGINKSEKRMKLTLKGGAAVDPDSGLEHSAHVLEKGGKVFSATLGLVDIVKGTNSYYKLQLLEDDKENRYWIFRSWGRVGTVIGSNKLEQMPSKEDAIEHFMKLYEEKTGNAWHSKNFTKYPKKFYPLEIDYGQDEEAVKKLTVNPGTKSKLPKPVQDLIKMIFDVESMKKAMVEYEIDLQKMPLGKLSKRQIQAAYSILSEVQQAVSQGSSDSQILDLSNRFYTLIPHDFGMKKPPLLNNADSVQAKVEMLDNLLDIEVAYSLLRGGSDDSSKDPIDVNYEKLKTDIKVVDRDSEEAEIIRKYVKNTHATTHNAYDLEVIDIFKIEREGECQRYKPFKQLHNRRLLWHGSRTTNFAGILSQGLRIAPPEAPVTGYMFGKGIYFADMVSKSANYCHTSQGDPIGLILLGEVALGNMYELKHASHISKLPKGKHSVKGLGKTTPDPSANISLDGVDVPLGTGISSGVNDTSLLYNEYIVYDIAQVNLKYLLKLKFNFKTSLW

[3] = molecular target: T2, full length N-terminally FLAG-tagged PARP1; experiment: PARP1 biochemical DELFIA assay (auto-PARylation); set-up: recombinant full length human N-terminally FLAG-tagged PARP1
[4] = read-out: PARP1 HTRF, PARP1 probe displacement HTRF
[5] = binned IC50, PARP1 biochemical DELFIA assay
[6] = read-out: PARP1 HTRF, probe displacement HTRF
[7] = binned IC50, biochemical auto-PARylation assay
[8] = PARP1 HTRF, PARP1 probe displacement HTRF
[9] = PARP1 HTRF, probe displacement HTRF

T1 sequence (Q9UGN5 whole entry, the tested form may be a part): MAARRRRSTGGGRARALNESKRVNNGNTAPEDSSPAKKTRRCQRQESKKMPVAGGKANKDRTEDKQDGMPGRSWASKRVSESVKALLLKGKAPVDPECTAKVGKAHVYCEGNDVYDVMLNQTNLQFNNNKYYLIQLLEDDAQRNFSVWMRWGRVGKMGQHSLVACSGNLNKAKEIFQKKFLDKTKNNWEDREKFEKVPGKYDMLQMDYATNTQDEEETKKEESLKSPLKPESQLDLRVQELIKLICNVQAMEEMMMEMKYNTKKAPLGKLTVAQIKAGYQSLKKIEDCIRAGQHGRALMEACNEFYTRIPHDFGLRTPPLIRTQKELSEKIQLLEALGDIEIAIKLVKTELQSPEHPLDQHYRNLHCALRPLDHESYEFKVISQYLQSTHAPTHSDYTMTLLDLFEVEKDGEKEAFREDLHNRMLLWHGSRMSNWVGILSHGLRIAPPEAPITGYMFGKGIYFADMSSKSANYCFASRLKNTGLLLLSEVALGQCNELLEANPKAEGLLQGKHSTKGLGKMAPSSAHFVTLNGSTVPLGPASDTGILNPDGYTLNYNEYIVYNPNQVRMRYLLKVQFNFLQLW

Compound	Kd ([1]; PARP2 probe displacement HTRF)	Selectivity ([2]; probe displacement HTRF)	Kd [2, 4]	IC50 [3, 5]	Kd ([1]; probe displacement HTRF)	Kd [2, 6]	IC50 [3, 7]	Kd [2, 8]	Kd [2, 9]
CNC(=O)c1ccc(N2CCC(N3CCC(c4nc5ccccc5c(=O)[nH]4)C3)CC2)c(C)n1 (single isomer, unassigned) [Compound 125b]	1000 to 10000 nM	+++ (+++ indicate a value of at least 100)	< 10 nM	< 10 nM					
CCc1ccc(C2CCN(C3CCN(c4cnc(C(=O)NC)cc4C)CC3)C2)[nH]c1=O (single isomer, unassigned) [Compound 217a]	> 10000 nM	− (− indicates a value of less than 10)	100 to 1000 nM	100 to 1000 nM					
NC(=O)c1ccc(N2CCC(N3CCCC(c4nc5ccccc5c(=O)[nH]4)C3)CC2)cn1 (single isomer, unassigned) [Compound 109a]	> 10000 nM	+++ (+++ indicate a value of at least 100)	< 10 nM	10 to 100 nM					
CCc1ccc(C2CCN(C3CCN(c4ccc(C(=O)NC)nc4F)CC3)C2)[nH]c1=O (single isomer, unassigned) [Compound 151b, 5-(4-(3-(5-ethyl-6-oxo-1,6-dihydropyridin-2-yl)pyrrolidin-1-yl)piperidin-1-yl)-6-fluoro-N-methylpicolinamide]	> 10000 nM	+++ (+++ indicate a value of at least 100)	< 10 nM	< 10 nM					
CNC(=O)c1ccc(N2CCC(N3CCC(c4nc5ccc(Cl)cc5c(=O)[nH]4)C3)CC2)cn1 (racemic) [Compound 49rac]	100 to 1000 nM	+++ (+++ indicate a value of at least 100)	< 10 nM	< 10 nM					
CNC(=O)c1ccc(N2CCC(N3CCC(c4ccc(Cl)c(=O)[nH]4)C3)CC2)cn1 (single isomer, unassigned) [Compound 201a]	> 10000 nM	+ (+ indicates a value of 10 to less than 50)	100 to 1000 nM	100 to 1000 nM					
CNC(=O)c1ccc(N2CCC(N3CCC(c4ccc(COC)c(=O)[nH]4)C3)CC2)cn1 (single isomer, unassigned) [Compound 207a]	> 10000 nM	+++ (+++ indicate a value of at least 100)	< 10 nM	< 10 nM					
CNC(=O)c1ccc(N2CCC(N3CCCC(c4ncc(C(F)(F)F)c(=O)[nH]4)C3)CC2)cn1 (single isomer, unassigned) [Compound 73b]	> 10000 nM	++ (++ indicates a value of 50 to less than 100)	10 to 100 nM	10 to 100 nM					
CS(=O)(=O)Nc1ccc(N2CCC(N3CCC(c4cc5ccccc5c(=O)[nH]4)C3)CC2)cn1 (single isomer, unassigned) [Compound 252b]		+ (+ indicates a value of 10 to less than 50)			100 to 1000 nM	10 to 100 nM	10 to 100 nM		
CCc1cnc(C2CCN(C3CCC(F)(F)CC3)C2)[nH]c1=O (single isomer, unassigned) [Compound 38a]	1000 to 10000 nM	− (− indicates a value of less than 10)	1000 to 10000 nM	1000 to 10000 nM					
Cc1cnc(-c2ccc(N3CCC(N4CCC(c5nc6ccccc6c(=O)[nH]5)C4)CC3)cn2)n1C (racemic) [Compound 321rac]		− (− indicates a value of less than 10)			100 to 1000 nM	100 to 1000 nM	100 to 1000 nM		
CNC(=O)c1ccc(N2CCC(N3CCC(F)(c4nc5ccccc5c(=O)[nH]4)C3)CC2)cn1 (single isomer, unassigned) [Compound 328a]		+ (+ indicates a value of 10 to less than 50)			> 10000 nM	100 to 1000 nM	100 to 1000 nM		
CNC(=O)c1ccc(N2CCC(N3CCCC(c4nc5ccccc5c(=O)[nH]4)C3)CC2)c(C)n1 (single isomer, unassigned) [Compound 131b]	> 10000 nM	+++ (+++ indicate a value of at least 100)	< 10 nM	< 10 nM					
CNC(=O)c1ccc(N2CCC(N3CCC(c4nc5ccccc5c(=O)[nH]4)C3)CC2)cn1 (single isomer, unassigned) [Compound 10a, N-methyl-5-(4-(3-(4-oxo-3,4-dihydroquinazolin-2-yl)pyrrolidin-1-yl)piperidin-1-yl)picolinamide]	100 to 1000 nM	+++ (+++ indicate a value of at least 100)		10 to 100 nM				< 10 nM	
CNC(=O)c1cc(Cl)c(N2CCC(N3CCC(c4cc5cccc(F)c5c(=O)[nH]4)C3)CC2)cn1 (racemic) [Compound 248rac]		+++ (+++ indicate a value of at least 100)			100 to 1000 nM	< 10 nM	< 10 nM		
CNC(=O)c1ccc(N2CCC(N3CCCC(c4nc5ncccc5c(=O)[nH]4)C3)CC2)cn1 (single isomer, unassigned) [Compound 98b]	> 10000 nM	+ (+ indicates a value of 10 to less than 50)	100 to 1000 nM	100 to 1000 nM					

Compound	Kd ([1]; PARP2 probe displacement HTRF)	Selectivity ([2]; probe displacement HTRF)	Kd [2, 4]	IC50 [3, 5]	Kd ([1]; probe displacement HTRF)	Kd [2, 6]	IC50 [3, 7]	Kd [2, 8]	Kd [2, 9]
CCNC(=O)c1ccc(N2CCC(N3CCCC(c4nc5ccccc5c(=O)[nH]4)C3)CC2)cn1 (single isomer, unassigned) [Compound 122a]	> 10000 nM	+++ (+++ indicate a value of at least 100)	10 to 100 nM	< 10 nM					
CNC(=O)c1ccc(N2CCC(N3CC4(c5nc6ccncc6c(=O)[nH]5)CC3C4)CC2)cn1 [Compound 304]		+++ (+++ indicate a value of at least 100)			> 10000 nM		< 10 nM		10 to 100 nM
CNC(=O)c1ccc(N2CCC(N3CC4(c5nc6ccccc6c(=O)[nH]5)CCC3C4)CC2)cn1 (single isomer, unassigned) [Compound 245b]		+++ (+++ indicate a value of at least 100)			> 10000 nM	10 to 100 nM	10 to 100 nM		
N#Cc1nc(C(=O)NC2CC2)ccc1N1CCC(N2CCC(c3cc4ccc(F)cc4c(=O)[nH]3)C2)CC1 (single isomer, unassigned) [Compound 397b]		+++ (+++ indicate a value of at least 100)			10 to 100 nM	< 10 nM	< 10 nM		
CCc1ccc(C2CCN(C3CCN(c4ccc(C(=O)NC)nc4)CC3)C2)[nH]c1=O (single isomer, unassigned) [Compound 72a]	1000 to 10000 nM	+++ (+++ indicate a value of at least 100)	10 to 100 nM	10 to 100 nM					
CNC(=O)c1ccc(N2CCC(N3CCC(c4nc5ncncc5c(=O)[nH]4)C3)CC2)cn1 (racemic) [Compound 335rac]		+ (+ indicates a value of 10 to less than 50)			> 10000 nM	100 to 1000 nM	100 to 1000 nM		
CNC(=O)c1ccc(N2CCC(N3CCC(c4[nH]c(=O)c5ccccc5c4C)C3)CC2)cn1 (racemic) [Compound 237rac]		++ (++ indicates a value of 50 to less than 100)			10 to 100 nM	< 10 nM	< 10 nM		
CC(=O)NC(=O)c1ccc(N2CCC(N3CCC(c4cc5ccccc5c(=O)[nH]4)C3)CC2)cc1 (single isomer, unassigned) [Compound 341a]		+++ (+++ indicate a value of at least 100)			100 to 1000 nM	< 10 nM	< 10 nM		
CNC(=O)c1ccc(N2CCC(N3CC4(c5nc6c(c(=O)[nH]5)CCCC6)CC3C4)CC2)c(F)n1 [Compound 389]		+++ (+++ indicate a value of at least 100)			100 to 1000 nM		< 10 nM		< 10 nM
CS(=O)(=O)Nc1ccc(N2CCC(N3CCC(c4nc5ccccc5c(=O)[nH]4)C3)CC2)cn1 (single isomer, unassigned) [Compound 291a]		+ (+ indicates a value of 10 to less than 50)			1000 to 10000 nM	100 to 1000 nM	10 to 100 nM		
CNC(=O)c1ccc(N2CCC(N3CCC(c4cc5ccc(F)cc5c(=O)[nH]4)C3)CC2)cn1 (single isomer, unassigned) [Compound 154a, 5-(4-(3-(7-fluoro-1-oxo-1,2-dihydroisoquinolin-3-yl)pyrrolidin-1-yl)piperidin-1-yl)-N-methylpicolinamide]	100 to 1000 nM	+++ (+++ indicate a value of at least 100)		< 10 nM				< 10 nM	
CNC(=O)c1ccc(N2CCC(N3CCC(c4ccc(C(C)C)c(=O)[nH]4)C3)CC2)cn1 (racemic) [Compound 142rac]	1000 to 10000 nM	+++ (+++ indicate a value of at least 100)	< 10 nM	< 10 nM					
CNC(=O)c1ccc(N2CCC(N3CCC(c4[nH]c(=O)c5cc(F)ccc5c4F)C3)CC2)cn1 (single isomer, unassigned) [Compound 370a]		+++ (+++ indicate a value of at least 100)			100 to 1000 nM	< 10 nM	< 10 nM		
CNC(=O)c1ccc(N2CCC(N3CCC(c4cc5ncc(F)cc5c(=O)[nH]4)C3)CC2)c(F)n1 (single isomer, unassigned) [Compound 324a]		+++ (+++ indicate a value of at least 100)			> 10000 nM	< 10 nM	< 10 nM		
CNC(=O)c1ccc(N2CCC(N3CCC(c4nc5sc(C)c(C)c5c(=O)[nH]4)C3)CC2)cn1 (single isomer, unassigned) [Compound 221a]		+ (+ indicates a value of 10 to less than 50)			100 to 1000 nM	10 to 100 nM	10 to 100 nM		
CCc1cnc(-c2cnn(C3CCN(c4ccc(C(=O)NC)nc4)CC3)c2)[nH]c1=O [Compound 20]	> 10000 nM	++ (++ indicates a value of 50 to less than 100)		10 to 100 nM				10 to 100 nM	

Source: patent US20250152585A1, “PHARMACEUTICAL COMPOUND” (Duke Street Bio Limited, priority 2022, published 2025)
